Measured values: patent US12667735B2, “Methods for reducing pain during photodynamic therapy of actinic keratosis” (Sun Pharmaceutical Industries, Inc., priority 2019, dated 2026)

Test: Daily home questionnaire of side effects, first 4 days after PDT
Format: in vivo, human
Details: for Pain Score Mean (0-10 visual-analog scale): average of 23 patients
Description: Several secondary endpoints were also measured. For pain assessment, patients were asked every 5 to 10 min during illumination to report their pain on a 0 to 10 visual-analog (VAS) scale. Erythema was recorded photographically at Day 1 and on Day 4 post PDT. A side effect profile was recorded by each patient in a daily home questionnaire to document the presence or absence of eleven different signs and symptoms in the 4 days immediately following PDT (see Table 2).

NCC(=O)CCC(=O)O [ALA, 5-aminolevulinic acid]
Open sores (Side A (test PDT), DAY 2): 9, 9 percentage of patients | Peeling (Side A (test PDT), DAY 2): 4 percentage of patients | Redness (Side A (test PDT), DAY 2): 100, 100 percentage of patients | Stinging (Side A (test PDT), DAY 2): 70, 70 percentage of patients | Swelling (Side A (test PDT), DAY 2): 26, 26 percentage of patients | Pain Score Mean (0-10 visual-analog scale) (Side A (test PDT), DAY 2): 2.5 | Bleeding (Side A (test PDT), DAY 3): 13 percentage of patients | Blisters (Side A (test PDT), DAY 3): 17 percentage of patients | Burning (Side A (test PDT), DAY 3): 35, 35 percentage of patients | Crusting (Side A (test PDT), DAY 3): 30 percentage of patients | Itching (Side A (test PDT), DAY 3): 70 percentage of patients | Open sores (Side A (test PDT), DAY 3): 9, 9 percentage of patients | Peeling (Side A (test PDT), DAY 3): 22 percentage of patients | Redness (Side A (test PDT), DAY 3): 91 percentage of patients | Stinging (Side A (test PDT), DAY 3): 39, 39 percentage of patients | Swelling (Side A (test PDT), DAY 3): 9 percentage of patients | Pain Score Mean (0-10 visual-analog scale) (Side A (test PDT), DAY 3): 1.6 | Bleeding (Side A (test PDT), DAY 4): 17 percentage of patients | Blisters (Side A (test PDT), DAY 4): 4 percentage of patients | Burning (Side A (test PDT), DAY 4): 26, 26 percentage of patients | Crusting (Side A (test PDT), DAY 4): 35, 35 percentage of patients | Itching (Side A (test PDT), DAY 4): 65, 65 percentage of patients | Open sores (Side A (test PDT), DAY 4): 4, 4 percentage of patients | Peeling (Side A (test PDT), DAY 4): 48 percentage of patients | Redness (Side A (test PDT), DAY 4): 83 percentage of patients | Stinging (Side A (test PDT), DAY 4): 35, 35 percentage of patients | Swelling (Side A (test PDT), DAY 4): 0, 0 percentage of patients | Pain Score Mean (0-10 visual-analog scale) (Side A (test PDT), DAY 4): 1.0, 1.0 | Bleeding (Side B (control PDT), DAY 1): 0, 0 percentage of patients | Blisters (Side B (control PDT), DAY 1): 13, 13 percentage of patients | Burning (Side B (control PDT), DAY 1): 65, 65 percentage of patients | Crusting (Side B (control PDT), DAY 1): 4 percentage of patients | Itching (Side B (control PDT), DAY 1): 43, 43 percentage of patients | Open sores (Side B (control PDT), DAY 1): 0, 0 percentage of patients | Peeling (Side B (control PDT), DAY 1): 0 percentage of patients | Redness (Side B (control PDT), DAY 1): 91, 91 percentage of patients | Stinging (Side B (control PDT), DAY 1): 65, 65 percentage of patients | Swelling (Side B (control PDT), DAY 1): 22 percentage of patients | Pain Score Mean (0-10 visual-analog scale) (Side B (control PDT), DAY 1): 2.9 | Bleeding (Side B (control PDT), DAY 2): 0 percentage of patients | Blisters (Side B (control PDT), DAY 2): 9 percentage of patients | Burning (Side B (control PDT), DAY 2): 52, 52 percentage of patients | Crusting (Side B (control PDT), DAY 2): 17 percentage of patients | Itching (Side B (control PDT), DAY 2): 74, 74 percentage of patients | Open sores (Side B (control PDT), DAY 2): 9, 9 percentage of patients | Peeling (Side B (control PDT), DAY 2): 9 percentage of patients | Redness (Side B (control PDT), DAY 2): 100, 100 percentage of patients | Stinging (Side B (control PDT), DAY 2): 70, 70 percentage of patients | Swelling (Side B (control PDT), DAY 2): 26, 26 percentage of patients | Pain Score Mean (0-10 visual-analog scale) (Side B (control PDT), DAY 2): 2.4 | Bleeding (Side B (control PDT), DAY 3): 4 percentage of patients | Blisters (Side B (control PDT), DAY 3): 13 percentage of patients | Burning (Side B (control PDT), DAY 3): 35, 35 percentage of patients | Crusting (Side B (control PDT), DAY 3): 26 percentage of patients | Itching (Side B (control PDT), DAY 3): 65 percentage of patients | Open sores (Side B (control PDT), DAY 3): 9, 9 percentage of patients | Peeling (Side B (control PDT), DAY 3): 26 percentage of patients | Redness (Side B (control PDT), DAY 3): 87 percentage of patients | Stinging (Side B (control PDT), DAY 3): 39, 39 percentage of patients | Swelling (Side B (control PDT), DAY 3): 13 percentage of patients | Pain Score Mean (0-10 visual-analog scale) (Side B (control PDT), DAY 3): 1.5 | Bleeding (Side B (control PDT), DAY 4): 13 percentage of patients | Blisters (Side B (control PDT), DAY 4): 9 percentage of patients | Burning (Side B (control PDT), DAY 4): 26, 26 percentage of patients | Crusting (Side B (control PDT), DAY 4): 35, 35 percentage of patients | Itching (Side B (control PDT), DAY 4): 65, 65 percentage of patients | Open sores (Side B (control PDT), DAY 4): 4, 4 percentage of patients | Peeling (Side B (control PDT), DAY 4): 52 percentage of patients | Redness (Side B (control PDT), DAY 4): 74 percentage of patients | Stinging (Side B (control PDT), DAY 4): 35, 35 percentage of patients | Swelling (Side B (control PDT), DAY 4): 0, 0 percentage of patients | Pain Score Mean (0-10 visual-analog scale) (Side B (control PDT), DAY 4): 1.0, 1.0 | Major inflammatory parameters, Side A versus Side B (first 4 days post-treatment): no noticeable differences
